According to PMC4997316, “A ruthenium polypyridyl intercalator stalls DNA replication forks, radiosensitizes human cancer cells and is enhanced by Chk1 inhibition” (Scientific Reports, 2016):

Legend:
γH2AX in HeLa cells = assay: γH2AX expression after irradiation (Western blot densitometry); assay type: cell-based, human; details: 40 μM 20 h then 6 Gy IR, harvested 1 h after irradiation
Description: Chemotherapeutics are often used in combination with external beam ionising radiation in the treatment of cancers and many drugs that inhibit DNA replication are potent radiosensitizers. To examine the possibility that 1 may function as a radiosensitizer, HeLa cells were pre-treated with 1 for 20 h before irradiation (0–6 Gy ionising irradiation (IR); ^137Cs-γ-rays; dose rate = 0.809 Gy min^−1). After further incubation for 4 h with the complex, the relative impact on cell viability was assessed by clonogenic survival. Complex 2, which achieves its impact on cell proliferation through non-DNA damage-based autophagy, was included in parallel for comparison. […] The formation of γH2AX is an early response to IR-induced DSB generation and may provide an indication of DNA damage levels. […]
Figure 6 [Ru(dppz)2(PIP)]^2+ sensitises human cancer cells to external beam ionising radiation. […] Survival fraction (S. F.) as a result of each treatment was determined by clonogenic assay and is presented as the mean +/− SD of two independent experiments where each experiment was performed in triplicate. […] Cells were harvested 1 h after irradiation and lysates analysed by Western blotting (left). γH2AX levels were measured by densitometry relative to β-actin loading controls and normalised to DMSO + 6 Gy data (right). […]

Calf thymus DNA = assay: relative viscosity of DNA on addition of complex; assay type: binding; details: calf thymus DNA 4.19 × 10^−5 M, r 0-0.3
Description: The novel ruthenium(II) polypyridyl complexes [Ru(dppz)2(PIP)]^2+, 1, and [Ru(dppz)2(p-HPIP)]^2+, 2, (dppz = dipyrido[3,2-a:2′,3′-c]phenazine, PIP = (2-(phenyl)imidazo[4,5-f][1,10]phenanthroline) and p-HPIP ((2-(4-hydroxyphenyl)imidazo[4,5-f][1,10]phenanthroline)) were prepared by modification of reported synthetic pathways[17][30][31] and characterised by standard spectroscopic and analytical techniques (Figs S1–7 in the Supplementary Information). Evidence of a reversible binding interaction with DNA is provided by evidence of hypochromicity of the absorption spectra of 1 and 2 with increasing concentrations of DNA (Fig. S8). […] To investigate specific binding mode, relative viscosities of DNA with increasing concentrations of each complex were determined, where an increase in relative viscosity corresponds to the unwinding and lengthening of the DNA strand as a result of intercalation. […]
Calf thymus DNA, CT-DNA, (Sigma) was dissolved in NaCl (25 mm) and Tris (5 mm, pH 7.0) buffer and concentrations of determined spectroscopically (ε = 6600 dm^3 mol^−1cm^−1 at 260 nm). […] An equilibration time of 20 min was allowed before the flow times were recorded by Cannon–Manning semimicro viscometer (size 50) immersed in a thermostat bath (27 °C). Times were recorded in triplicate to within 0.1 second of each other and averaged values obtained.

[1] = tested on: cleaved caspase-3 and LC3-II in HeLa cells; assay: Western blotting for cell death markers (cleaved caspase 3, LC3-II); assay type: cell-based, human; details: 24 h, concentrations centred on IC50
Description: Figure 2 Complexes 1 and 2 are internalised by cancer cells and impact proliferation. (a) Effect of 40 μM 1 or 2 (0–72 h incubation time) on numbers of viable (left) and non-viable (right, data expressed as % total cells, independent of viability) HeLa cells (in triplicate, +/− SD). […] (c) Intracellular Ru levels of HeLa cells treated with 1 or 2 (40 μM, 24 h), as determined by ICP-MS. (d) Ru levels within isolated subcellular fractions of HeLa cells treated with 1 or 2 (40 μM, 24 h). Fractions: C = cytoplasm and cytoskeleton, M = membrane, N = nucleus. Successful fractionation confirmed by immunoblotting (right). All ICP-MS data were normalised to protein content of the corresponding fraction and are the mean of two independent experiments +/− SEM. (e) Epifluorescence microscopy of HeLa cells treated with 1 or 2 (40 μM, 24 h) showing intracellular MLCT emission. Co-staining with nuclear stain DAPI included. Scale bars = 20 μm.
Cells were incubated as stated, washed with cold PBS and lysed in RIPA (radioimmunoprecipitation assay) buffer containing protease inhibitors (10 μg/ml leupeptin, 2 μg/ml pepstatin, 50 μg/ml antipain, 2 μg/ml aprotinin, 20 μg/ml chyprostatin, 2 μg/ml benzamidine, 1 mM phenylmethanesulfonyl fluoride) and phosphatase inhibitors (50 mM NaF, 1 mM Na3VO4 and 20 mM β-glycerophosphate). Aliquots of cell lysates (5–20 μg total protein) were resolved by NuPAGE® 4–12% Bis-Tris gels and LDS-PAGE, transferred onto nitrocellulose membrane and probed with primary antibodies in 5% BSA (bovine serum albumin) solutions. Reactions were visualised with a suitable secondary antibody conjugated with horseradish peroxidase (Thermo). Pierce ECL (Thermo) or WesternSurePREMIUM (Li-Cor) chemiluminescent substrates with X-ray development (Fuji medical film and Optimax 2010 processor) or digital analysis (LiCor C-Digit Blot Scanner) were used to visualise protein expression. Li-Cor Image Studio Lite software was used for densitometry data acquisition.

| Compound | γH2AX levels compared to IR alone (γH2AX in HeLa cells) | relative viscosity of DNA (Calf thymus DNA) | generation of apoptosis marker cleaved caspase-3 [1] | levels of autophagy marker LC3-II [1] |
| --- | --- | --- | --- | --- |
| [Ru+2].c1ccc(-c2nc3c4cccnc4c4ncccc4c3[nH]2)cc1.c1ccc2nc3c4cccnc4c4ncccc4c3nc2c1.c1ccc2nc3c4cccnc4c4ncccc4c3nc2c1 [Complex 1, [Ru(dppz)2(PIP)]^2+] | approximately two-fold greater | increase relative viscosity of DNA | no generation of the apoptosis marker cleaved caspase-3 | no detectable increase |
| Oc1ccc(-c2nc3c4cccnc4c4ncccc4c3[nH]2)cc1.[Ru+2].c1ccc2nc3c4cccnc4c4ncccc4c3nc2c1.c1ccc2nc3c4cccnc4c4ncccc4c3nc2c1 [Complex 2, [Ru(dppz)2(p-HPIP)]^2+] | no such increase in γH2AX expression | increase relative viscosity of DNA | no generation of the apoptosis marker cleaved caspase-3 | greater in cells treated with 2 at IC50 concentrations or greater compared to untreated |
